The nature of data set [1]: Hydrolysis of the hydrocortisone prodrugs in solution (buffers). The class given is physicochemical. The settings on record: Buffer 1, 4° C. The procedure:
This solution also contained 2 mM 6α-methyl prednisolone as an internal standard. The samples were then stored at −20° C. until analyzed with RP-HPLC and eluted with a linear gradient of 24-55% acetonitrile in water with 0.1% TFA. The amount of hydrocortisone hydrolyzed from the prodrug was determined by comparing its peak area to that of 6α-methyl prednisolone. […] Thirty microliter samples were collected at 10, 20, 30, and 60 minutes and analyzed as previously described.

The test system of data set [2] is articular surface of cartilage. The data set is described as follows: Coupling of hydrocortisone prodrugs to the articular surface of cartilage via tTG. The class given is biochemical, bovine. The settings on record: 1.0 mM prodrug with tTG, immunohistochemistry and quantification.
Protocol: Modified tissue samples were immersed in tissue freezing media and frozen at −80° C. until use. Tissue slices (25 μm thick) were cut using a cryostat (Microm HM505N, Carl Zeiss) and the freezing media was removed with 3 washes of Buffer 1. Blocking was performed with 4% goat serum in Buffer 1 (blocking buffer) for 1 hour at room temperature. The tissue sections were then incubated with 10 μg/mL mouse anti-hydrocortisone antibody for 1.5 h in the blocking buffer at room temperature, rinsed 3 times with Buffer 1 for 5 minutes each, and then incubated with fluorescein conjugated goat anti-mouse antibody (1/200) in blocking buffer for 1 hour. Samples were rinsed again with Buffer 1 and then imaged using a Leica epifluorescent microscope (λex=495 nm, λem=520 nm for fluorescein) and a SPOT RT digital camera (Diagnostic Instruments, Sterling Heights, Mich.).
A further data set deals with cartilage sections. Nature of the data set: Coupling of peptide conjugates to cartilage sections via tTG, fluorescein anti-biotin staining. The data set is classed as biochemical, bovine. The settings on record: in the presence of tTG, 50 μM conjugate, 0.5 U/mL tTG, 30 min at 37° C. Here is the method:
Partial depolymerization of glycosaminoglycans in the tissue was accomplished by digesting with chondroitinase ABC at 40 mU/mL in 50 mM Tris, 70 mM sodium acetate and 0.01% bovine serum albumin (BSA) at pH 8 for 30 minutes at 37° C. Samples were then rinsed 3 times with TBS and blocked with 1% BSA in TBS for one hour at room temperature. The tTG reaction conditions used were similar to a previously described method. (See, Aeschlimann D, Wetterwald A, Fleisch H, and Paulsson M. Expression of tissue transglutaminase in skeletal tissues correlates with events of terminal differentiation of chondrocytes. Journal of Cell Biology 1993; 120: 1461-1470.) The cartilage sections were incubated in 500 μL of 50 μM peptide or peptide-PEG conjugate, 0.5 U/mL tTG, 5 mM CaCl2, 2.5 mM dithiothreitol and 100 mM Tris, at pH 8.3 for 30 min at 37° C. Control experiments were performed in the absence of tTG. After completion of the tTG reaction, the solution was removed and samples were rinsed 3 times with 1% BSA in TBS for 5 minutes each. The cartilage sections were then incubated with fluorescein conjugated anti-biotin antibody at 10 μg/mL in 1% BSA in TBS for 2 hours at room temperature. Samples were rinsed 4 times with TBS for 5 minutes each, followed by blocking with 10% donkey serum for 1 hour and incubation with rabbit anti-collagen II antibody in TBS containing 10% donkey serum for 1 hour. The samples were rinsed 3 times with 10% donkey serum in TBS and then incubated with Texas Red conjugated donkey anti-rabbit antibody. Samples were rinsed again with TBS and then imaged using a Leica epifluorescent microscope (λex=495 nm, λem=520 for fluorescein and λex=596 nm, λem=620 for Texas Red) and a SPOT RT digital camera (Diagnostic Instruments, Sterling Heights, Mich.).
Images were analyzed using Metamorph image analysis software (Molecular Devices, Sunnyvale, Calif.). Fluorescein fluorescence was measured at three randomly selected areas of the middle zone on each cartilage section image and then averaged. A similar procedure was utilized to determine Texas Red fluorescence. The fluorescein fluorescence intensity was then normalized to the fluorescence of the Texas Red for each cartilage section image in order to account for potential ECM differences between sections. Finally, the average green fluorescence for each peptide-PEG conjugate was then normalized by dividing by the red fluorescence.

For another data set, the target named is T1, tTG (UniProt P08587).
T1 sequence (P08587 1-690): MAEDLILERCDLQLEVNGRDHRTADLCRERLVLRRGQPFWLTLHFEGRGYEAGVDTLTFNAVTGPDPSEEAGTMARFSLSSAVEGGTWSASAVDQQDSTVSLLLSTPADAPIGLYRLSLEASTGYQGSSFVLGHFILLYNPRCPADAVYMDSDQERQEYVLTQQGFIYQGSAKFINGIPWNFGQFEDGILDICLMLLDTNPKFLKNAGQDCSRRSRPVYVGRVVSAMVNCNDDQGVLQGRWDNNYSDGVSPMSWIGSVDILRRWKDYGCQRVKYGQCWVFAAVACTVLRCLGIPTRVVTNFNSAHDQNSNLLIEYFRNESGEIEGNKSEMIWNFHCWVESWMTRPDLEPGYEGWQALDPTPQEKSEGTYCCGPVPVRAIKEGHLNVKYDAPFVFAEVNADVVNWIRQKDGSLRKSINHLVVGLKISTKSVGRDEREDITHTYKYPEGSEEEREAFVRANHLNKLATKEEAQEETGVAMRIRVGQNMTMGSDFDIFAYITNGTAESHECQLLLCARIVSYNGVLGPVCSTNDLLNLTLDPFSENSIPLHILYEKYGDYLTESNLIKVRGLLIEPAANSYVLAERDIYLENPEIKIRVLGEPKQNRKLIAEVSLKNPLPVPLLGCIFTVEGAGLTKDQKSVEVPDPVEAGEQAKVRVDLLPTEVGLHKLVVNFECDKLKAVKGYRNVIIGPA
The settings on record: reactivity with the enzyme (tTG); cited from earlier work.

Data set [3] deals with Fresh articular cartilage. The settings on record: in the presence of enzyme.

No end group written: not given here.

hydrocortisone-GFKG-PEG [TRIP-PC]: the T50% of hydrolysis in data set [1] was found to be 57.8 h. In addition, the “bound hydrocortisone, TRIP-C compared with TRIP-PC” value in data set [2] was “no detectable difference in bound hydrocortisone”. Consider FKG, for which, in the data set with cartilage sections, the “coupling to cartilage (anti-biotin fluorescence)” value was “bind to cartilage surfaces via tTG”. Moreover, at tTG, the specificity is 560 mM⁻¹ min⁻¹. Turning to Biotin-FKG-HA, the “anti-biotin antibody staining of tissue surface” value in data set [3] was “intense staining”. For “GQQQLG (GQQQLG-NH2) [glutamine (acyl donor) peptide substrate of tTG]”, in the data set on cartilage sections, the “coupling to cartilage (anti-biotin fluorescence)” value is listed as “bind to cartilage surfaces via tTG”. Further, in the data set with tTG, the specificity is 34.1 mM⁻¹ min⁻¹.
